From BindingDB's records for doi:10.1016/j.bmcl.2015.06.046 (Cubist Pharmaceuticals, 2015)

Assay: Antagonist activity at CCR9 receptor (unknown origin) by serum chemotaxis assay

`CC(C)(C)c1ccc(S(=O)(=O)Nc2ccc(Cl)cc2-c2nccnc2NCCO)cc1` showed an IC50 of 170 nM.
